Results published in the supplement of paper PMC11208160.

Assay: recombinant barcode read abundance after kanamycin selection (control-corrected) (log10(CPM+1)); higher = more efficient recombination; sequences stand for … in AGTGCAGAGAAAATCGGCCAGTTTTCTCTGCCTGCAGTCCGCATGCCGT…ATTTATGCAGCGGACTGCCTTTCTCCCAAAGTGATAAACCGGACAGTATCATGGACCGGTTTTCCCGGTAATCCGTATTTGCAAGGTTGGTTTCACT; site = the 11-nt target
In short: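 Pooled oligos, each joining a target to an IS621 bridge RNA target-binding loop, were cloned and co-electroporated with a donor plasmid into E. coli. Selective plates carried chloramphenicol/ampicillin/kanamycin and 0.1 mM IPTG, while chloramphenicol/ampicillin LB agar served as control, with two replicates of each. Recombination efficiency rests on averaged, control-corrected counts per million of barcodes at recombinant junctions, shown as log10(CPM+1).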

Sequence	recombinant barcode read abundance (log10)
AGGCGGTTATGGGTTCTAACCTGTTGCTTTA [AGGCGGTCTAA_LTGcore_TA_RTGcore_TA] (site AGGCGGTCTAA) (LTG core: TA, RTG core: TA)	0.025
AGGCGGTTCTGGGTTCTAACCTGTTGCTTAG [AGGCGGTCTAA_LTGcore_TC_RTGcore_CT] (site AGGCGGTCTAA) (LTG core: TC, RTG core: CT)	0
AGGCGGTTCTGGGTTCTAACCTGTTGCTTGA [AGGCGGTCTAA_LTGcore_TC_RTGcore_TC] (site AGGCGGTCTAA) (LTG core: TC, RTG core: TC)	0.191
AGGCGGTTTTGGGTTCTAACCTGTTGCTTAG [AGGCGGTCTAA_LTGcore_TT_RTGcore_CT] (site AGGCGGTCTAA) (LTG core: TT, RTG core: CT)	0.104
AGTCTTAACTGGGTTCTAACCTGTTGCCAAG [AGTCTTACTTG_LTGcore_AC_RTGcore_CT] (site AGTCTTACTTG) (LTG core: AC, RTG core: CT)	0.111
AGTCTTAACTGGGTTCTAACCTGTTGCCAGT [AGTCTTACTTG_LTGcore_AC_RTGcore_AC] (site AGTCTTACTTG) (LTG core: AC, RTG core: AC)	0.129
AGTCTTAAGTGGGTTCTAACCTGTTGCCACT [AGTCTTACTTG_LTGcore_AG_RTGcore_AG] (site AGTCTTACTTG) (LTG core: AG, RTG core: AG)	0.0305
AGTCTTACCTGGGTTCTAACCTGTTGCCAAG [AGTCTTACTTG_LTGcore_CC_RTGcore_CT] (site AGTCTTACTTG) (LTG core: CC, RTG core: CT)	0.0498
AGTCTTACTTGGGTTCTAACCTGTTGCCATG [AGTCTTACTTG_LTGcore_CT_RTGcore_CA] (site AGTCTTACTTG) (LTG core: CT, RTG core: CA)	0.0163
AGTCTTAGATGGGTTCTAACCTGTTGCCAAG [AGTCTTACTTG_LTGcore_GA_RTGcore_CT] (site AGTCTTACTTG) (LTG core: GA, RTG core: CT)	0.23
AGTCTTAGATGGGTTCTAACCTGTTGCCATC [AGTCTTACTTG_LTGcore_GA_RTGcore_GA] (site AGTCTTACTTG) (LTG core: GA, RTG core: GA)	0.0257
AGTCTTAGCTGGGTTCTAACCTGTTGCCAAG [AGTCTTACTTG_LTGcore_GC_RTGcore_CT] (site AGTCTTACTTG) (LTG core: GC, RTG core: CT)	0.0805
AGTCTTAGGTGGGTTCTAACCTGTTGCCAAG [AGTCTTACTTG_LTGcore_GG_RTGcore_CT] (site AGTCTTACTTG) (LTG core: GG, RTG core: CT)	0
AGTCTTAGTTGGGTTCTAACCTGTTGCCAAG [AGTCTTACTTG_LTGcore_GT_RTGcore_CT] (site AGTCTTACTTG) (LTG core: GT, RTG core: CT)	0.0538
AGTCTTATCTGGGTTCTAACCTGTTGCCAAG [AGTCTTACTTG_LTGcore_TC_RTGcore_CT] (site AGTCTTACTTG) (LTG core: TC, RTG core: CT)	0.0237
ATGCTTTAATGGGTTCTAACCTGTTGCCTTT [ATGCTTTCTAG_LTGcore_AA_RTGcore_AA] (site ATGCTTTCTAG) (LTG core: AA, RTG core: AA)	0.125
ATGCTTTACTGGGTTCTAACCTGTTGCCTGT [ATGCTTTCTAG_LTGcore_AC_RTGcore_AC] (site ATGCTTTCTAG) (LTG core: AC, RTG core: AC)	0.0458

Sequence	recombinant barcode read abundance (log10)
ATGCTTTCTTGGGTTCTAACCTGTTGCCTAA [ATGCTTTCTAG_LTGcore_CT_RTGcore_TT] (site ATGCTTTCTAG) (LTG core: CT, RTG core: TT)	0.322
ATGCTTTCTTGGGTTCTAACCTGTTGCCTCA [ATGCTTTCTAG_LTGcore_CT_RTGcore_TG] (site ATGCTTTCTAG) (LTG core: CT, RTG core: TG)	0.153
ATGCTTTCTTGGGTTCTAACCTGTTGCCTCC [ATGCTTTCTAG_LTGcore_CT_RTGcore_GG] (site ATGCTTTCTAG) (LTG core: CT, RTG core: GG)	0.127
ATGCTTTCTTGGGTTCTAACCTGTTGCCTGG [ATGCTTTCTAG_LTGcore_CT_RTGcore_CC] (site ATGCTTTCTAG) (LTG core: CT, RTG core: CC)	0.57
ATGCTTTTGTGGGTTCTAACCTGTTGCCTCA [ATGCTTTCTAG_LTGcore_TG_RTGcore_TG] (site ATGCTTTCTAG) (LTG core: TG, RTG core: TG)	0.313
ATGTCCCAATGGGTTCTAACCTGTTGCTCTT [ATGTCCCCTGA_LTGcore_AA_RTGcore_AA] (site ATGTCCCCTGA) (LTG core: AA, RTG core: AA)	0.133
ATGTCCCATTGGGTTCTAACCTGTTGCTCAT [ATGTCCCCTGA_LTGcore_AT_RTGcore_AT] (site ATGTCCCCTGA) (LTG core: AT, RTG core: AT)	0.0551
ATGTCCCCATGGGTTCTAACCTGTTGCTCTG [ATGTCCCCTGA_LTGcore_CA_RTGcore_CA] (site ATGTCCCCTGA) (LTG core: CA, RTG core: CA)	0.0134
ATGTCCCCCTGGGTTCTAACCTGTTGCTCAG [ATGTCCCCTGA_LTGcore_CC_RTGcore_CT] (site ATGTCCCCTGA) (LTG core: CC, RTG core: CT)	0.137
ATGTCCCCCTGGGTTCTAACCTGTTGCTCGG [ATGTCCCCTGA_LTGcore_CC_RTGcore_CC] (site ATGTCCCCTGA) (LTG core: CC, RTG core: CC)	0.0529
ATGTCCCCGTGGGTTCTAACCTGTTGCTCAG [ATGTCCCCTGA_LTGcore_CG_RTGcore_CT] (site ATGTCCCCTGA) (LTG core: CG, RTG core: CT)	0.0411
ATGTCCCCTTGGGTTCTAACCTGTTGCTCAT [ATGTCCCCTGA_LTGcore_CT_RTGcore_AT] (site ATGTCCCCTGA) (LTG core: CT, RTG core: AT)	0.0302
ATGTCCCCTTGGGTTCTAACCTGTTGCTCGT [ATGTCCCCTGA_LTGcore_CT_RTGcore_AC] (site ATGTCCCCTGA) (LTG core: CT, RTG core: AC)	0.161
ATGTCCCGTTGGGTTCTAACCTGTTGCTCAG [ATGTCCCCTGA_LTGcore_GT_RTGcore_CT] (site ATGTCCCCTGA) (LTG core: GT, RTG core: CT)	0.0848
ATGTCCCTCTGGGTTCTAACCTGTTGCTCGA [ATGTCCCCTGA_LTGcore_TC_RTGcore_TC] (site ATGTCCCCTGA) (LTG core: TC, RTG core: TC)	0.122
ATGTCCCTTTGGGTTCTAACCTGTTGCTCAG [ATGTCCCCTGA_LTGcore_TT_RTGcore_CT] (site ATGTCCCCTGA) (LTG core: TT, RTG core: CT)	0.0884
CATATTAAATGGGTTCTAACCTGTTGCCTAG [CATATTACTAG_LTGcore_AA_RTGcore_CT] (site CATATTACTAG) (LTG core: AA, RTG core: CT)	0.0356
